Patent US20250353861A1, “DERIVATIVE OF ARTEMISININ AND PREPARATION METHOD AND USE THEREOF” (SHANGHAI INNOFORTUNE BIOTECH CO. LTD., priority 2022, published 2025)

Tests used:
[1] = Testing of stability at different pH values (HPLC); type: physicochemical
Experimental: 10 mg of the sample was weighed and 10 mL of an aqueous solution at a different pH value was added, followed by ultrasonic dissolving and filtration. HPLC testing was then performed.

[2] = tested on: corneal neovascularization in New Zealand rabbits with alkali burn; assay: Effects on corneal neovascularization in New Zealand rabbits with alkali burn; type: in vivo; settings: 1% eye drops 3 times a day; for Formation of new blood vessels in the cornea (slit-lamp photographs, FIG. 2), comparison of groups: preliminary conclusion from the figures; for Number of New Zealand rabbit eyes with appearance of fluorescein-stained spots / Number of New Zealand rabbit eyes with conjunctival congestion / Number of New Zealand rabbit eyes with corneal edema / Number of New Zealand rabbit eyes with neovascularization: 2 drops, 12 eyes per group (10 for SZY1905-P32)
Experimental: Twenty-four New Zealand rabbits were first given intravenous anesthesia with a chloralhydrate solution at a dose of about 0.5 mL/kg, followed by ocular surface anesthesia with 0.5% tetracaine hydrochloride eye drops. A piece of filter paper with a diameter of about 8 mm was immersed in 1 mol/L NaOH solution for 1 minute to reach saturation. The saturated filter paper was placed in the center of the cornea for 1 minute and then removed, immediately followed by repeatedly rinsing the cornea and the conjunctival sac with 0.9% sodium chloride injection for 1 minute. After that, tobramycin dexamethasone sodium phosphate eye drops were administered. After modeling, the twenty-four animals were divided into four groups, which were: Model group; SZY1905-P30 eye drops-administered group; […] The eye drops were administered 3 times a day, 2 drops each time. The Model group was not administered with any drugs. […] The cornea was then stained with fluorescein sodium, and observed under the slit-lamp microscope and photographed.

[3] = Testing of solubility at different pH values
Experimental: First, a series of solutions with pH-5-8 were prepared using phosphoric acid and NaOH.

[4] = 1st day of the modeling (0 day of administration)
[5] = 7th day of the modeling (6th day of administration)
[6] = 14th day of the modeling (13th day of administration)

Row | Structure (SMILES) | Stability, 0 day (%) ([1]; Purified water, 10 mg in 10 mL) | Stability, 8th day (%) ([1]; Purified water, 10 mg in 10 mL) | Stability, 20th day (%) ([1]; Purified water, 10 mg in 10 mL) | Stability, 30th day (%) ([1]; Purified water, 10 mg in 10 mL) | Stability, 0 day (%) ([1]; pH = 5.0, 10 mg in 10 mL) | Stability, 8th day (%) ([1]; pH = 5.0, 10 mg in 10 mL) | Stability, 20th day (%) ([1]; pH = 5.0, 10 mg in 10 mL) | Formation of new blood vessels in the cornea (slit-lamp photographs, FIG. 2), comparison of groups [2] | Number of New Zealand rabbit eyes with appearance of fluorescein-stained spots [2, 4] | Number of New Zealand rabbit eyes with conjunctival congestion [2, 4] | Number of New Zealand rabbit eyes with corneal edema [2, 4] | Number of New Zealand rabbit eyes with neovascularization [2, 4] | Number of New Zealand rabbit eyes with appearance of fluorescein-stained spots [2, 5] | Number of New Zealand rabbit eyes with conjunctival congestion [2, 5] | Number of New Zealand rabbit eyes with corneal edema [2, 5] | Number of New Zealand rabbit eyes with neovascularization [2, 5] | Number of New Zealand rabbit eyes with appearance of fluorescein-stained spots [2, 6] | Number of New Zealand rabbit eyes with conjunctival congestion [2, 6] | Number of New Zealand rabbit eyes with corneal edema [2, 6] | Number of New Zealand rabbit eyes with neovascularization [2, 6] | further results
1 | C[C@H]1[C@H](OCCC[N+](C)(C)C)O[C@@H]2O[C@@]3(C)CC[C@H]4[C@H](C)CC[C@@H]1C24OO3 [SZY1905-P30, artemisinin quaternary ammonium propyl ether iodate] | 97.09 | 96.91 | 97.04 | 97.28 | 97.23 | 96.90 | 97.01 | can delay the rapid formation of new blood vessels significantly better than the SZY1905-P32 eye drops-administered group | 12 | 2 | 8 | 0 | 6 | 0 | 2 | 3 | 5 | 0 | 1 | 4 | Stability, 30th day (%) ([1]; pH = 5.0, 10 mg in 10 mL): 97.25%; Stability, 0 day (%) ([1]; pH = 6.0, 10 mg in 10 mL): 97.24%; Stability, 8th day (%) ([1]; pH = 6.0, 10 mg in 10 mL): 96.95%; Stability, 20th day (%) ([1]; pH = 6.0, 10 mg in 10 mL): 96.81%; Stability, 30th day (%) ([1]; pH = 6.0, 10 mg in 10 mL): 97.23%; Stability, 0 day (%) ([1]; pH = 7.0, 10 mg in 10 mL): 97.34%; Stability, 8th day (%) ([1]; pH = 7.0, 10 mg in 10 mL): 97.09%; Stability, 20th day (%) ([1]; pH = 7.0, 10 mg in 10 mL): 96.97%; Stability, 30th day (%) ([1]; pH = 7.0, 10 mg in 10 mL): 97.26%; Stability, 0 day (%) ([1]; pH = 8.0, 10 mg in 10 mL): 97.22%; Stability, 8th day (%) ([1]; pH = 8.0, 10 mg in 10 mL): 97.13%; Stability, 20th day (%) ([1]; pH = 8.0, 10 mg in 10 mL): 96.98%; Stability, 30th day (%) ([1]; pH = 8.0, 10 mg in 10 mL): 97.13%; solubility ([3]; aqueous solution adjusted with phosphoric acid and NaOH, 25 °C, pH 5, aqueous buffer): > 1000 µg/mL; solubility ([3]; aqueous solution adjusted with phosphoric acid and NaOH, 25 °C, pH 6, aqueous buffer): > 1000 µg/mL; solubility ([3]; aqueous solution adjusted with phosphoric acid and NaOH, 25 °C, pH 7, aqueous buffer): > 1000 µg/mL; solubility ([3]; aqueous solution adjusted with phosphoric acid and NaOH, 25 °C, pH 8, aqueous buffer): > 1000 µg/mL; solubility ([3]; purified water, 25 °C, water): > 10000 µg/mL
2 | C[C@H]1[C@H](OCCCC[N+](C)(C)C)O[C@@H]2O[C@@]3(C)CC[C@H]4[C@H](C)CC[C@@H]1C24OO3.[I-] [SZY1905-P31, artemisinin quaternary ammonium butyl ether iodate] | 98.05 | 97.68 | 97.35 | 97.46 | 98.11 | 97.69 | 97.38 | can delay the rapid formation of new blood vessels significantly better than the SZY1905-P32 eye drops-administered group | 12 | 2 | 9 | 0 | 7 | 0 | 3 | 3 | 6 | 0 | 3 | 3 | Stability, 30th day (%) ([1]; pH = 5.0, 10 mg in 10 mL): 97.48%; Stability, 0 day (%) ([1]; pH = 6.0, 10 mg in 10 mL): 98.16%; Stability, 8th day (%) ([1]; pH = 6.0, 10 mg in 10 mL): 97.64%; Stability, 20th day (%) ([1]; pH = 6.0, 10 mg in 10 mL): 97.39%; Stability, 30th day (%) ([1]; pH = 6.0, 10 mg in 10 mL): 97.48%; Stability, 0 day (%) ([1]; pH = 7.0, 10 mg in 10 mL): 98.26%; Stability, 8th day (%) ([1]; pH = 7.0, 10 mg in 10 mL): 97.85%; Stability, 20th day (%) ([1]; pH = 7.0, 10 mg in 10 mL): 97.57%; Stability, 30th day (%) ([1]; pH = 7.0, 10 mg in 10 mL): 97.58%; Stability, 0 day (%) ([1]; pH = 8.0, 10 mg in 10 mL): 98.14%; Stability, 8th day (%) ([1]; pH = 8.0, 10 mg in 10 mL): 97.64%; Stability, 20th day (%) ([1]; pH = 8.0, 10 mg in 10 mL): 97.33%; Stability, 30th day (%) ([1]; pH = 8.0, 10 mg in 10 mL): 97.49%; solubility ([3]; Purified water, 25° C. (room temperature)): >10000 µg/mL; solubility ([3]; pH 5.0, 25° C. (room temperature)): >1000 µg/mL; solubility ([3]; pH 6.0, 25° C. (room temperature)): >1000 µg/mL; solubility ([3]; pH 7.0, 25° C. (room temperature)): >1000 µg/mL; solubility ([3]; pH 8.0, 25° C. (room temperature)): >1000 µg/mL
3 | C[C@H]1[C@H](OCCCN)O[C@@H]2O[C@@]3(C)CC[C@H]4[C@H](C)CC[C@@H]1C24OO3 [SZY1905-P32, reference compound] | – | – | – | – | – | – | – | new vessels have spread to the entire cornea | 10 | 1 | 8 | 0 | 9 | 0 | 4 | 6 | 8 | 0 | 3 | 7 | –
